# From PubChem BioAssay AID1053130 (The Scripps Research Institute Molecular Screening Center, 2014)
# The source made the active and inactive calls. The rule behind the calls is not given here.
# System: Jurkat cell viability, ATP luminescence
# Experiment: viability loss in human Jurkat cells – cell-based, luminescence, round 3, cytotoxicity control for T. brucei MetRS inhibitor project, late-stage follow-up (AID 1053130)
row,Structure (SMILES),IC50
1,CCN(CC)C(=O)C(=O)c1cn(CC(=O)Nc2cc(Oc3ccccc3OC)cc(C(F)(F)F)c2)c2ccccc12,> 83.3 µM (inactive)
2,CCN(CC)C(=O)C(=O)c1cn(CC(=O)Nc2cc(Oc3ccccc3F)cc(C(F)(F)F)c2)c2ccccc12,> 83.3 µM (inactive)
3,CCN(CC)C(=O)Cc1cn(CC(=O)Nc2cccc(C(F)(F)F)c2)c2ccccc12,> 83.3 µM (inactive)
4,CCN(CC)C(=O)C(=O)c1cn(CC(=O)Nc2cccc(C(F)(F)F)c2)c2ccccc12,57.2 µM (inactive)
5,CCN(CC)C(=O)C(=O)c1cn(CCNc2cc(Oc3ccccc3)cc(C(F)(F)F)c2)c2ccccc12,34.8 µM (inactive)
6,CCN(CC)C(=O)C(=O)c1cn(CCNc2cccc(C(F)(F)F)c2)c2ccccc12,41.1 µM (inactive)
7,Nc1c(Cl)ncnc1Nc1ccc(C(=O)O)cc1,> 83.3 µM (inactive)
8,CCN(CC)C(=O)C(=O)c1cn(CC(=O)Nc2cc(Oc3ccc(OC)cc3)cc(C(F)(F)F)c2)c2ccccc12,11.3 µM (inactive)
9,CCN(CC)C(=O)C(=O)c1cn(CC(=O)Nc2cc(Oc3ccc(F)cc3)cc(C(F)(F)F)c2)c2ccccc12,50.1 µM (inactive)
10,CCN(CC)C(=O)C(=O)c1cn(CC(=O)Nc2cc(Oc3ccccc3)cc(C(F)(F)F)c2)c2ccccc12,21 µM (inactive)
11,O=C(Cn1cc(C(=O)C(=O)NCc2ccccc2)c2ccccc21)Nc1cc(Oc2ccccc2)cc(C(F)(F)F)c1,63.9 µM (inactive)
12,O=C(Cc1ccc(Nc2nc3ccc(Br)cc3[nH]2)cc1)NCCc1cccs1,> 27.8 µM (inactive)
